Structures can show the parent of a compound that is named as a salt.
What was measured:
[1] = molecular target: α7-subtype of nicotinic receptors (Rattus norvegicus, UniProt Q05941); assay: biochemical; assay type: binding
Sequence of α7-subtype of nicotinic receptors (Q05941 23-502): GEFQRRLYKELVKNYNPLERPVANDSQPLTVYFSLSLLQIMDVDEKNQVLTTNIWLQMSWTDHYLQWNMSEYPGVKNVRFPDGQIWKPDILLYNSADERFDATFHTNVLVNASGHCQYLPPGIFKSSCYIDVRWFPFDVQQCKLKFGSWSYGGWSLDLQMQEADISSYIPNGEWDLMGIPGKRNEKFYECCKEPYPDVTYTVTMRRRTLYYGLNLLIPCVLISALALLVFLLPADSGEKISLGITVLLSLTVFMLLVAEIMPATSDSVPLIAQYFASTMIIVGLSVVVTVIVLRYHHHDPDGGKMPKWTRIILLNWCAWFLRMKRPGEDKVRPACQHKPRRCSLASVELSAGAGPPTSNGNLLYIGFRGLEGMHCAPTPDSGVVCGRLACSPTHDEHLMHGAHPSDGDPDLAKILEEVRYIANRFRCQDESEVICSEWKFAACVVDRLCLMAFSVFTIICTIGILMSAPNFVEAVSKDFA

Compound | IC50 [1] [nM] | melting point [°C]
CCN1C2CCCC1CN(c1ccc(-c3ccccc3)nn1)C2 [Compound D1, 9-Ethyl-3-(6-phenyl-pyridazin-3-yl)-3,9-diaza-bicyclo[3.3.1]nonane] | < 1000 | 
CN1C2CCCC1CN(c1ccc(-c3ccccc3)nn1)C2 (as salt: fumaric acid salt) [Compound A1, 9-Methyl-3-(6-phenyl-pyridazin-3-yl)-3,9-diaza-bicyclo[3.3.1]nonane] |  | 187 to 188
CN1C2CCCC1CN(c1ccc(-c3ccccc3)nn1)C2 [Compound A1, 9-Methyl-3-(6-phenyl-pyridazin-3-yl)-3,9-diaza-bicyclo[3.3.1]nonane] | < 1000 | 
CN1C2CCCC1CN(c1ccc(-c3ccsc3)nn1)C2 [Compound C1] | < 1000 | 

Source: patent publication US8173658B2 (priority 2005, dated 2012)
